pKi: −log10 of the molar value. Where two headings read alike, the source gives them in different places. Each block holds one compound with its values, some of them ahead of it.
Columns and labels:
human CHK1 (FL-CHK1) = molecular target: T1, human CHK1 (FL-CHK1) (Homo sapiens, UniProt O14757); test: CHK1 assay (coupled spectrophotometric, Syntide-2); type: biochemical; details: for CHK-1 @ 20 μM: Table 4, compound at 20 μM; for pKi: read-out: CHK-1 Ki
T1 construct: C-terminally His-tagged full-length human CHK1 (FL-CHK1); made in house; host or cells: baculovirus/insect cell system
T1 sequence (O14757 1-476): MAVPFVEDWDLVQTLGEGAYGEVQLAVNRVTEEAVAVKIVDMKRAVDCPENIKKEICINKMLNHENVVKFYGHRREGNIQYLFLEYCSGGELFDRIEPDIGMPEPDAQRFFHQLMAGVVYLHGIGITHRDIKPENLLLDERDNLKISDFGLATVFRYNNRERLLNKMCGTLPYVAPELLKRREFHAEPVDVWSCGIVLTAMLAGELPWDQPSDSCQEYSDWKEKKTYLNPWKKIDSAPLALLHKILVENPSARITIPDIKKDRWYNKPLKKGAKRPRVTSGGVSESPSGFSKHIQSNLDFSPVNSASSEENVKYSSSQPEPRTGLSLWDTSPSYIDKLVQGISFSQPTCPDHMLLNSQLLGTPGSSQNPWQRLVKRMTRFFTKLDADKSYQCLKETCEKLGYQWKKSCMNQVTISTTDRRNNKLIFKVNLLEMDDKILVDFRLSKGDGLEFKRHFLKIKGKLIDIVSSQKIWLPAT
Excerpt: CHK1 Construct for Assay: C-terminally His-tagged full-length human CHK1 (FL-CHK1) was expressed using the baculovirus/insect cell system. […] The protein was purified by conventional chromatographic techniques.
The production of ADP from ATP that accompanies phosphoryl transfer to the synthetic substrate peptide Syntide-2 ([…]) was coupled to oxidation of NADH using phosphoenolpyruvate (PEP) through the actions of pyruvate kinase (PK) and lactic dehydrogenase (LDH). The oxidation of NADH was monitored by following the decrease of absorbance at 340 nm (ε340=6.22 cm^−1 mM^−1) using a HP8452 spectrophotometer. […] Assays were initiated with 10 nM of FL-CHK1. Ki values were determined by measuring initial enzyme activity in the presence of varying concentrations of test compounds. The data were analyzed using Enzyme Kinetic and Kaleidagraph software.

[1] = molecular target: unphosphorylated VEGF-R2Δ50 (FLVK) (Homo sapiens, UniProt P35968, DEL940-989/E990V); test: VEGF-R2 coupled spectrophotometric assay, unphosphorylated VEGF-R2Δ50 (FLVK); details: FLVK Ki, Table 1
Chain of unphosphorylated VEGF-R2Δ50 (FLVK) (P35968 with tags, fused parts or gaps DEL940-989/E990V limits assumed): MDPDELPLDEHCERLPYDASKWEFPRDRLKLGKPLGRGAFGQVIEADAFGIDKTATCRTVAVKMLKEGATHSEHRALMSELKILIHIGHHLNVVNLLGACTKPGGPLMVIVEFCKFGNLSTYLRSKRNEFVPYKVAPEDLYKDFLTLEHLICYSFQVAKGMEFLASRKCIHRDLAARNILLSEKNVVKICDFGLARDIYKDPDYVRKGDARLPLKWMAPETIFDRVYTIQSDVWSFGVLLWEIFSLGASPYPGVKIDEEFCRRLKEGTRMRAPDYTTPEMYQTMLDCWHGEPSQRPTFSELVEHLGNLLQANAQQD

[2] = Determination of inhibitor concentration in mouse plasma after intraperitoneal and oral dosing; type: in vivo; details: for AUC(0-t) / concentration at 7 h: female
How it was run: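 Plasma levels quantified by HPLC or LC-MS using a standard curve prepared in mouse plasma, following ethyl acetate extraction with internal standard and sodium hydroxide. Sampling at 0.5, 1, 4 h (ocular bleed) and 7 h (cardiac puncture) after oral or intraperitoneal dosing.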

[3] = Human liver microsome (HLM) assay; type: in vitro ADME; details: human liver microsomes, 5 μM test compound
How it was run: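 LC-MS quantified test compound remaining after 0 and 2 h incubation with human liver microsomes. Triplicate samples, clarified by 10 min centrifugation at 14000 g.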

[4] = IP, 25 mg/kg, vehicle PEG400:H2O pH 2.3 30:70
[5] = PO, 50 mg/kg, vehicle PEG400:H2O pH 2.3 30:70
[6] = PO, 25 mg/kg, vehicle PEG400:H2O pH 2.3 30:70
[7] = IP, 25 mg/kg, vehicle PEG400:H2O pH 2.3 60:40
[8] = PO, 50 mg/kg, vehicle PEG400:H2O pH 2.3 60:40

SMILES: O=C(Nc1cc[nH]n1)c1ccc2c(-c3nc4ccccc4[nH]3)n[nH]c2c1
CHK-1 @ 20 μM (human CHK1 (FL-CHK1)): 52.4

CHK-1 @ 20 μM (human CHK1 (FL-CHK1)): 38.6
SMILES: O=C(Nc1cc(O)[nH]n1)c1ccc2c(-c3nc4ccccc4[nH]3)n[nH]c2c1

SMILES: Cc1nc(/C=C/c2n[nH]c3cc(-c4ccncc4)ccc23)cs1 [29(j), 6-Pyrid-4-yl-3-E-[2-(2-methylthiazol-4-yl)ethenyl]-1H-indazole]
pKi (human CHK1 (FL-CHK1); Table 3): 6.27

SMILES: O=C(c1ccccc1)c1ccc2c(/C=C/c3ccccc3)n[nH]c2c1 [Example 17, Phenyl-(3-styryl-1H-indazol-6-yl)-methanone]
pKi (human CHK1 (FL-CHK1); Table 1): 6.27

SMILES: C(=C\c1n[nH]c2cc(-c3cccc4[nH]ccc34)ccc12)/c1ccccc1 [Example 27(g), 6-Indol-4-yl-3-E-styryl-1H-indazole]
pKi (human CHK1 (FL-CHK1); Table 3): 6.07

SMILES: COc1ccc(-c2ccc3c(/C=C/c4ccccc4)n[nH]c3c2)cn1 [Example 27(k), 6-(2-Methoxypyridin-5-yl)-3-E-styryl-1H-indazole]
pKi (human CHK1 (FL-CHK1); Table 3): 4.62

SMILES: Oc1ccc(-c2ccc3c(/C=C/c4ccccc4)n[nH]c3c2)cc1 [Example 28(b)]
pKi (human CHK1 (FL-CHK1); Table 3): 7.84

SMILES: Oc1ccc(-c2ccc3c(/C=C/c4ccccc4)n[nH]c3c2)cc1O [Example 28(d), 6-(3,4-Dihydroxyphenyl)-3-E-styryl-1H-indazole]
pKi (human CHK1 (FL-CHK1); Table 3): 7.74

SMILES: C(=C\c1n[nH]c2cc(-c3ccncc3)ccc12)/c1ccc(-c2ccccc2)cc1 [Example 29(d), 6-Pyrid-4-yl-3-E-[2-(biphenyl-4-yl)ethenyl]-1H-indazole]
pKi (human CHK1 (FL-CHK1); Table 3): 5.00

SMILES: C(=C\c1n[nH]c2cc(-c3ccncc3)ccc12)/c1ccc2ccccc2c1 [Example 29(k), 6-Pyrid-4-yl-3-E-[2-(naphthalen-2-yl)ethenyl]-1H-indazole]
pKi (human CHK1 (FL-CHK1); Table 3): 5.89

SMILES: Fc1cc(F)cc(/C=C/c2n[nH]c3cc(-c4ccncc4)ccc23)c1 [Example 29(m), 6-Pyrid-4-yl-3-E-[2-(3,5-difluorophenyl)ethenyl]-1H-indazole]
pKi (human CHK1 (FL-CHK1); Table 3): 6.00

SMILES: C(=C\c1n[nH]c2cc(-c3ccncc3)ccc12)/c1cccc(-c2ccccc2)c1 [Example 29(n), 6-Pyrid-4-yl-3-E-[2-(biphenyl-3-yl)ethenyl]-1H-indazole]
pKi (human CHK1 (FL-CHK1); Table 3): 4.80

SMILES: Fc1cccc(F)c1/C=C/c1n[nH]c2cc(-c3ccncc3)ccc12 [Example 29(o), 6-Pyrid-4-yl-3-E-[2-(2,6-difluorophenyl)ethenyl]-1H-indazole]
pKi (human CHK1 (FL-CHK1); Table 3): 4.34

SMILES: C(=C\c1n[nH]c2cc(-c3ccncc3)ccc12)/c1nc2ccccc2[nH]1 [Example 29(q), 6-Pyrid-4-yl-3-E-[2-(4-benzimidazol-2-yl)ethenyl]-1H-indazole]
pKi (human CHK1 (FL-CHK1); Table 3): 4.96

SMILES: C(=C\c1n[nH]c2cc(-c3ccncc3)ccc12)/c1ccc[nH]1 [Example 29(t), 6-Pyrid-4-yl-3-E-[2-(1H-pyrrol-2-yl)ethenyl]-1H-indazole]
pKi (human CHK1 (FL-CHK1); Table 3): 7.14

SMILES: Cc1cc(C(=O)Nc2cccc(C(=O)c3ccc4c(/C=C/c5ccccn5)n[nH]c4c3)c2)on1 [Example 41(m), 6-[3-((3-Methylisoxazol-5-yl)carboxamido)benzoyl]-3-E-[2-(pyridin-2-yl)ethenyl]-1H-indazole]
pKi [1]: 9.12
AUClast [2, 4]: 1864 ng·h/mL
plasma half-life (T1/2) [2, 4]: 2.3 h
AUClast [2, 5]: 9 ng·h/mL
Cmax [2, 5]: 5 ng/mL
plasma half-life (T1/2) [2, 5]: blq
% remain (HLM, 2 h) [3]: 0%

SMILES: O=C(c1cccc(NC(=O)c2ccc(Cl)s2)c1)c1ccc2c(/C=C/c3ccccn3)n[nH]c2c1 [Example 41(o), 6-[3-((5-Chlorothien-2-yl)carboxamido)benzoyl]-3-E-[2-(pyridin-2-yl)ethenyl]-1H-indazole]
pKi [1]: 10.30
AUClast [2, 5]: 14717 ng·h/mL
plasma half-life (T1/2) [2, 5]: 1.7 h
AUC(0-t) [2, 4]: > 33800 ng·h/mL
concentration at 7 h ([2]; IP, 25 mg/kg, vehicle PEG400:H2O pH 2.3 30:70, read-out: Cmin (7 hr conc.)): > 5000 ng/mL
concentration at 7 h ([2]; PO, 50 mg/kg, vehicle PEG400:H2O pH 2.3 30:70, read-out: Cmin (7 hr conc.)): 427 ng/mL
% remain (HLM, 2 h) [3]: 94%

SMILES: C=CCn1nc(C)cc1C(=O)Nc1cccc(C(=O)c2ccc3c(/C=C/c4ccccn4)n[nH]c3c2)c1 [Example 41(t), 6-[3-((1-Allyl-3-methyl-1H-pyrazol-5-yl)carboxamido)benzoyl]-3-E-[2-(pyridin-2-yl)ethenyl]-1H-indazole]
pKi [1]: 10.22
plasma half-life (T1/2) [2, 6]: 4.0 h
AUC(0-t) [2, 6]: > 22500 ng·h/mL
concentration at 7 h ([2]; PO, 25 mg/kg, vehicle PEG400:H2O pH 2.3 30:70, read-out: Cmin (7 hr conc.)): 1350 ng/mL
% remain (HLM, 2 h) [3]: 87%

SMILES: O=C(Nc1cccc(C(=O)c2ccc3c(-c4nc5ccccc5[nH]4)n[nH]c3c2)c1)c1ccccc1 [Example 42(b), 6-(3-Benzamidobenzoyl)-3-(1H-benzoimidazol-2-yl)-1H-indazole]
pKi [1]: 9.46
AUClast [2, 7]: 3207 ng·h/mL
plasma half-life (T1/2) [2, 7]: 3.0 h
AUClast [2, 8]: 4747 ng·h/mL
plasma half-life (T1/2) [2, 8]: 3.0 h
concentration at 7 h ([2]; IP, 25 mg/kg, vehicle PEG400:H2O pH 2.3 60:40, read-out: Cmin (7 hr conc.)): 211 ng/mL
concentration at 7 h ([2]; PO, 50 mg/kg, vehicle PEG400:H2O pH 2.3 60:40, read-out: Cmin (7 hr conc.)): 46 ng/mL
% remain (HLM, 2 h) [3]: 81%

SMILES: O=C(NC1CC1)c1ccc2c(-c3nc4ccccc4[nH]3)n[nH]c2c1 [Example 53(b), 3-(1H-Benzoimidazol-2-yl)-N-cyclopropyl-1H-indazole-6-carboxamide]
pKi (human CHK1 (FL-CHK1); Table 3): 5.85

SMILES: O=C(NOCc1ccccc1)c1ccc2c(-c3nc4ccccc4[nH]3)n[nH]c2c1 [Example 53(f), 3-(1H-Benzoimidazol-2-yl)-N-benzyloxy-1H-indazole-6-carboxamide]
pKi (human CHK1 (FL-CHK1); Table 3): 5.14

pKi (human CHK1 (FL-CHK1); Table 3): 5.82
SMILES: O=C(Nc1ccc(O)c(F)c1)c1ccc2c(-c3nc4ccccc4[nH]3)n[nH]c2c1 [Example 53(g), 3-(1H-Benzoimidazol-2-yl)-N-(3-fluoro-4-hydroxyphenyl)-1H-indazole-6-carboxamide]

pKi (human CHK1 (FL-CHK1); Table 3): 5.51
SMILES: O=C(Nc1ccc(O)cc1)c1ccc2c(-c3nc4cc(Cl)c(Cl)cc4[nH]3)n[nH]c2c1 [Example 54(b), 3-(5,6-Dichloro-1H-benzoimidazol-2-yl)-N-(4-hydroxyphenyl)-1H-indazole-6-carboxamide]

SMILES: O=C(Nc1ccc(O)cc1)c1ccc2c(-c3nc4cc5ccccc5cc4[nH]3)n[nH]c2c1 [Example 54(d), 3-[1H-Naphtho(2,3-d)imidazol-2-yl]-N-(4-hydroxyphenyl)-1H-indazole-6-carboxamide]
pKi (human CHK1 (FL-CHK1); Table 3): 6.17

SMILES: Cc1ccc2[nH]c(-c3n[nH]c4cc(C(=O)Nc5ccc(O)cc5)ccc34)nc2c1C [Example 54(f), 3-(4,5-Dimethyl-1H-benzoimidazol-2-yl)-N-(4-hydroxyphenyl)-1H-indazole-6-carboxamide]
pKi (human CHK1 (FL-CHK1); Table 3): 5.54

SMILES: O=C(Nc1ccc(O)cc1)c1ccc2c(-c3nc4cc(C(F)(F)F)ccc4[nH]3)n[nH]c2c1 [Example 54(h), 3-(5-Trifluoromethyl-1H-benzoimidazol-2-yl)-N-(4-hydroxyphenyl)-1H-indazole-6-carboxamide]
pKi (human CHK1 (FL-CHK1); Table 3): 6.00

SMILES: O=C(Nc1ccc(O)cc1)c1ccc2c(-c3nc4cc(Cl)ccc4[nH]3)n[nH]c2c1 [Example 54(l), 3-(5-Chloro-1H-benzoimidazol-2-yl)-N-(4-hydroxyphenyl)-1H-indazole-6-carboxamide]
pKi (human CHK1 (FL-CHK1); Table 3): 6.00

SMILES: c1ccc2[nH]c(-c3n[nH]c4cc(-c5ccncc5)ccc34)nc2c1 [Example 55, 3-1H-Benzoimidazol-2-yl-6-pyridin-4-yl-1H-indazole]
pKi (human CHK1 (FL-CHK1); Table 3): 5.00

SMILES: O=C(NC1CCS(=O)(=O)C1)c1ccc2c(-c3nc4ccccc4[nH]3)n[nH]c2c1 (stereo not shown) [drawing 1226]
CHK-1 @ 20 μM (human CHK1 (FL-CHK1)): 24.2

SMILES: O=C(Nc1ccc2[nH]c(=O)[nH]c2c1)c1ccc2c(-c3nc4ccccc4[nH]3)n[nH]c2c1 [drawing 1232]
CHK-1 @ 20 μM (human CHK1 (FL-CHK1)): 32.3

SMILES: O=C(Nc1cnccn1)c1ccc2c(-c3nc4ccccc4[nH]3)n[nH]c2c1 [drawing 1245]
CHK-1 @ 20 μM (human CHK1 (FL-CHK1)): 36.3

SMILES: O=C(Nc1ncnc2[nH]cnc12)c1ccc2c(-c3nc4ccccc4[nH]3)n[nH]c2c1 [drawing 1250]
CHK-1 @ 20 μM (human CHK1 (FL-CHK1)): 38.6
